Test results published in patent US10619138B2, “Herbicide-resistant hydroxyphenylpyruvate dioxygenases” (BASF SE, priority 2013, dated 2020).

What was measured:
[1] = tested on: Scenedesmus HPPD (SEQ ID NO: 4); assay: In vitro HPPD activity assay, tolerance index; type: biochemical, Scenedesmus obliquus; details: normalized on Arabidopsis wild-type HPPD
Method: (§1) The activity assay for HPPD is based on the analysis of homogentisic acid by reversed phase HPLC.
(§2) The assay mixture can contain 150 mM potassium phosphate buffer pH 7.0, 50 mM L-ascorbic acid, 100 μM Catalase (Sigma-Aldrich), 1 μM FeSO4 and 0.2 units of purified HPPD enzyme in a total volume of 505 μl. 1 unit is defined as the amount of enzyme that is required to produce 1 nmol of HGA per minute at 20° C.
(§3) The reaction is allowed to proceed for 45 min at room temperature. The reaction is stopped by the addition of 50 μl of 4.5 M phosphoric acid. The sample is filtered using a […] pore size PVDF filtration device.
(§4) 5 μl of the cleared sample is analyzed on an UPLC HSS T3 column (particle size 1.8 μm, dimensions 2.1×50 mm; Waters) by isocratic elution using 90% 20 mM NaH2PO4 pH 2.2, 10% methanol (v/v).
(§5) HGA is detected electrochemically at 750 mV (mode: DC; polarity: positive) and quantified by integrating peak areas (Empower software; Waters).
(§6) Inhibitors are dissolved in DMSO (dimethylsulfoxide) to a concentration of 0.5 mM. From this stock solution serial five-fold dilutions are prepared in DMSO, which are used in the assay. The respective inhibitor solution accounts for 1% of the assay volume. Thus, final inhibitor concentrations range from 5 μM to 320 pM, respectively. Activities are normalized by setting the uninhibited enzyme activity to 100%. IC50 values are calculated using non-linear regression.
(§7) Using methods which are described in the above examples or well known in the art, purified, recombinant wildtype HPPD enzymes are characterized with respect to their kinetic properties and sensitivity towards HPPD inhibiting herbicides. Apparent michaelis constants (Km) and maximal reaction velocities (Vmax) are calculated by non-linear regression with the software GraphPad Prism 5 (GraphPad Software, La Jolla, USA) using a substrate inhibition model. […] Weighted means (by standard error) of Km and IC50 values are calculated from at least three independent experiments. The Cheng-Prusoff equation for competitive inhibition (Cheng, Y. C.; Prusoff, W. H. Biochem Pharmacol 1973, 22, 3099-3108) is used to calculate dissociation constants (Ki).
(§8) Field performance of the HPPD enzyme, which is used as a herbicide tolerance trait may depend not only on its lack of sensitivity towards HPPD inhibiting herbicides but also on its activity. To assess the potential performance of a herbicide tolerance trait a tolerance index (TI) is calculated using the following formula: […]
(§9) Easy comparison and ranking of each trait is enabled by normalizing tolerance indexes on Arabidopsis wild-type HPPD.

[2] = tested on: Geodermatophilus HPPD (SEQ ID NO: 32); assay: In vitro HPPD activity assay, tolerance index; type: biochemical, Geodermatophilus obscurus; details: normalized on Arabidopsis wild-type HPPD
Method: as §1, §2, §3, §4, §5, §6, §7, §8, §9

[3] = tested on: Herpetosiphon HPPD (SEQ ID NO: 26); assay: In vitro HPPD activity assay, tolerance index; type: biochemical, Herpetosiphon aurantiacus; details: normalized on Arabidopsis wild-type HPPD
Method: as §1, §2, §3, §4, §5, §6, §7, §8, §9

[4] = tested on: Nitritalea HPPD (SEQ ID NO: 14); assay: In vitro HPPD activity assay, tolerance index; type: biochemical, Nitritalea halalkaliphila; details: normalized on Arabidopsis wild-type HPPD
Method: as §1, §2, §3, §4, §5, §6, §7, §8, §9

[5] = target: T1, Arabidopsis HPPD (SEQ ID NO: 42) (Arabidopsis thaliana, UniProt P93836); assay: In vitro HPPD activity assay (HGA by HPLC), wildtype enzyme characterization; type: biochemical; details: for TI (normalized tolerance index): normalized on Arabidopsis wild-type HPPD, reference enzyme
T1 construct: Arabidopsis (42); His tag; made in house; host or cells: E. coli BL21 (DE3)
T1 sequence (P93836 1-445): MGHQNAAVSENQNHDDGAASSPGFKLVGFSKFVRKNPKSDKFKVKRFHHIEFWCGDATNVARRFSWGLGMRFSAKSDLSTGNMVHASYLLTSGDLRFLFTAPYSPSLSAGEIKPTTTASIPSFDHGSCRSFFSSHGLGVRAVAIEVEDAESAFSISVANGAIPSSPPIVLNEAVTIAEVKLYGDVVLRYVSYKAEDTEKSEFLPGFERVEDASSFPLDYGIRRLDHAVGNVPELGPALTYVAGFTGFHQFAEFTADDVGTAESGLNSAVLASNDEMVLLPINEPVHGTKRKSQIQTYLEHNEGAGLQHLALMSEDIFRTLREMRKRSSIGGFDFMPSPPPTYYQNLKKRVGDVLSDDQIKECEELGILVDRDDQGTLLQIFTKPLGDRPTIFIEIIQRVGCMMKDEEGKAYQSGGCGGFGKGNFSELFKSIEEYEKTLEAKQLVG
Method: as §1, §2, §3, §4, §5
Inhibitors are dissolved in DMSO (dimethylsulfoxide) to a concentration of 0.5 mM. From this stock solution serial five-fold dilutions are prepared in DMSO, which are used in the assay. The respective inhibitor solution accounts for 1% of the assay volume. […] Activities are normalized by setting the uninhibited enzyme activity to 100%. IC50 values are calculated using non-linear regression.
Using methods which are described in the above examples or well known in the art, purified, recombinant wildtype HPPD enzymes are characterized with respect to their kinetic properties and sensitivity towards HPPD inhibiting herbicides. Apparent michaelis constants (Km) and maximal reaction velocities (Vmax) are calculated by non-linear regression with the software GraphPad Prism 5 (GraphPad Software, La Jolla, USA) using a substrate inhibition model. […] Weighted means (by standard error) of Km and IC50 values are calculated from at least three independent experiments.
as §8, §9

[6] = tested on: Belliella HPPD (SEQ ID NO: 12); assay: In vitro HPPD activity assay, tolerance index; type: biochemical, Belliella baltica; details: normalized on Arabidopsis wild-type HPPD
Method: as §1, §2, §3, §4, §5, §6, §7, §8, §9

[7] = tested on: Algoriphagus HPPD (SEQ ID NO: 22); assay: In vitro HPPD activity assay, tolerance index; type: biochemical, Algoriphagus machipongonensis; details: normalized on Arabidopsis wild-type HPPD
Method: as §1, §2, §3, §4, §5, §6, §7, §8, §9

| Compound | TI (normalized tolerance index) [1] | TI (normalized tolerance index) [2] | TI (normalized tolerance index) [3] | TI (normalized tolerance index) [4] | TI (normalized tolerance index) [5] | TI (normalized tolerance index) [6] | Ki [5] | TI (tolerance index) ([5]; not normalized) | TI (normalized tolerance index) [7] |
| --- | --- | --- | --- | --- | --- | --- | --- | --- | --- |
| CS(=O)(=O)c1ccc(C(=O)C2C(=O)CCCC2=O)c([N+](=O)[O-])c1 [Inhibitor 2, 2-(4-methylsulfonyl-2-nitro-benzoyl)cyclohexane-1,3-dione] | 0.1 | 0.7 | 0.4 | 0 | 1 | 0.1 | – | – | – |
| CN(c1c(Cl)ccc(C2=C(O)c3ncccc3C(C)(C)S2(=O)=O)c1Cl)S(C)(=O)=O [Inhibitor 4, N-[2,6-dichloro-3-(8-hydroxy-5,5-dimethyl-6,6-dioxo-thiopyrano[4,3-b]pyridin-7-yl)phenyl]-N-methyl-methanesulfonamide] | – | – | – | – | 1 | – | 29 nM | 23.8E−3 | 132.5 |
| CSc1c(Cl)cc(F)c(C(=O)Nc2nnnn2C)c1Cl [Inhibitor 11, 2,4-dichloro-6-fluoro-3-methylsulfanyl-N-(1-methyltetrazol-5-yl)benzamide] | 0.3 | 0.2 | 0.2 | 0 | 1 | 0 | – | – | – |
